From ChEMBL document CHEMBL5120757, “Strategies Targeting Protein Tyrosine Phosphatase SHP2 for Cancer Therapy” (J Med Chem, 2022)

What was measured:
[1] = molecular target: T1, Tyrosine-protein phosphatase non-receptor type 11 (Homo sapiens, UniProt Q06124); assay: Inhibition of SHP2 (unknown origin)
T1 sequence (Q06124 whole entry): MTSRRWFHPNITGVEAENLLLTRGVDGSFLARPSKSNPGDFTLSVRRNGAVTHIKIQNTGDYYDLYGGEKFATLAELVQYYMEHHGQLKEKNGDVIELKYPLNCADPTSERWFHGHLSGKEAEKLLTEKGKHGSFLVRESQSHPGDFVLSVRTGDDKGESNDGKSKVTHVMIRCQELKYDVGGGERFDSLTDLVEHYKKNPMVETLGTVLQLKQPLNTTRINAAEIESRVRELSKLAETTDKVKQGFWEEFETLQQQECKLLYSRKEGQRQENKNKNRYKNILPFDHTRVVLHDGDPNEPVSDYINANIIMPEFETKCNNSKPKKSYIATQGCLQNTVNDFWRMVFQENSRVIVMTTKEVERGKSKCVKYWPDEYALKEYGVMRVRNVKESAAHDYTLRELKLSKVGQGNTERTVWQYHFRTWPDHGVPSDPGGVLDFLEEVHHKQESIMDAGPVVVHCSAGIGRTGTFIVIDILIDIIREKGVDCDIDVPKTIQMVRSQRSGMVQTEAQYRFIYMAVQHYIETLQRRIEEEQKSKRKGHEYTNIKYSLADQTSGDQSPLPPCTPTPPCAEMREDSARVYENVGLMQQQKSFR

[2] = molecular target: T1, Tyrosine-protein phosphatase non-receptor type 11; assay: Degradation of wildtype SHP2 in human MV411 cells; type: cell-based; conditions: mv4-11
[3] = molecular target: Tyrosine-protein phosphatase non-receptor type 11 (Homo sapiens, UniProt Q06124, F285S); assay: Inhibition of SHP2 F285S mutant (unknown origin) using DiFMUP as substrate incubated for 1 hr followed by substrate addition measured after 30 mins by plate reader method
Chain of Tyrosine-protein phosphatase non-receptor type 11 (Homo sapiens, UniProt Q06124, F285S) (Q06124 2-593 F285S limits assumed): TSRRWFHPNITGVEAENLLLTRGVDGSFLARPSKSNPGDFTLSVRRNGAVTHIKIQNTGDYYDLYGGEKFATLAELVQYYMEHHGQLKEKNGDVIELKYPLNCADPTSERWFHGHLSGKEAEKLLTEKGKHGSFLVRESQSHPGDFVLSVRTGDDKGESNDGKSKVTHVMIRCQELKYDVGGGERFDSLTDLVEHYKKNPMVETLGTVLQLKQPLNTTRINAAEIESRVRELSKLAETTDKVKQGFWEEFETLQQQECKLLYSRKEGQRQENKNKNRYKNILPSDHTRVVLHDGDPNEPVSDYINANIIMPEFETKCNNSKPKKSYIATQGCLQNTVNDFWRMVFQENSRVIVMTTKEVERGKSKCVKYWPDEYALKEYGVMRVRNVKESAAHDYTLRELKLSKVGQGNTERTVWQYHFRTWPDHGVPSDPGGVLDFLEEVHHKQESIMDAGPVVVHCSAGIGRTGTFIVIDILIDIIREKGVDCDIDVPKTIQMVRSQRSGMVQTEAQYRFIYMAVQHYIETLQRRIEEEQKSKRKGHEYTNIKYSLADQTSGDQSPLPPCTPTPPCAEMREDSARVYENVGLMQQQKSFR

[4] = molecular target: T1, Tyrosine-protein phosphatase non-receptor type 11; assay: Inhibition of wildtype SHP2 (unknown origin)

Structure (SMILES) | IC50 [1] | also measured
COC(=O)c1cc(NC2=NC(=O)/C(=C/c3ccc(C)cc3)S2)ccc1O | 50 nM | 
C[C@@H]1OCC2(CCN(c3cnc(Sc4cccc(NC(=O)CCC(=O)NCCCOCCOCCOCCCNc5cccc6c5C(=O)N(C5CCC(=O)NC5=O)C6=O)c4Cl)c(N)n3)CC2)[C@@H]1N (some centres not stated) |  | DC50 [2]: 6 nM
Cc1nc(N2CCC3(CC2)CO[C@@H](C)[C@H]3N)cnc1-c1ccc(OCCOCCOCCCOCCCOCCCOCCCOCCOCCNCC(=O)COc2cccc3c2C(=O)N(C2CCC(=O)NC2=O)C3=O)c(Cl)c1Cl (some centres not stated) |  | IC50 [3]: 22.5 nM
C=C/C(=C/C(=O)C[C@H](C)C[C@@H](C)CC[C@H](O)[C@H](C)C(=O)C[C@@H](O)[C@H](C)[C@@H](C)OC(=O)C[C@@H](O)/C(C(=O)O)=C(\C)C(=O)O)CC | 29000 nM | 
CC1(NCc2cn(CCOCCOCCOCCOCCNc3cccc4c3C(=O)N(C3CCC(=O)NC3=O)C4=O)nn2)CCN(c2cnc(-c3cccc(Cl)c3Cl)c(N)n2)CC1 (configuration not stated) |  | IC50 [4]: 714 nM

Now from value to compound, other results behind:

IC50 [1] | Structure (SMILES) | also measured
16800 nM | NC(=O)c1cc[n+](CC2=C(C(=O)O)N3C(=O)[C@@H](NC(=O)[C@@H](c4ccccc4)S(=O)(=O)O)[C@@H]3SC2)cc1 | 
2100 nM | O=C(O)c1cc(O)c(=O)c2c(O)c(O)ccc2c1 [7-DESHYDROXYPYROGALLIN-4-CARBOXYLIC ACID] | 
